2 substances from US20230287391A1, “KRAB FUSION REPRESSORS AND METHODS AND COMPOSITIONS FOR REPRESSING GENE EXPRESSION” (THE GOVERNING COUNCIL OF THE UNIVERSITY OF TORONTO, priority 2020, published 2023) can be followed below.

Common to all, as to type: cell-based, human
In one assay the test system is HEK293T cells. The assay can be described thus: Genome-wide CRISPRi cell viability dropout screen (Dolcetto Set A). The settings on record: depletion of gRNAs for gold-standard essential vs non-essential genes after 21 days. An excerpt: Finally, the performance of the three KRAB effector constructs was investigated in a large-scale unbiased screen. […] These cells were infected with the recently described Dolcetto Set A gRNA library targeting 18,901 genes with three gRNAs per gene and measured gRNA depletion after 21 days. The relative depletion of gRNAs targeting gold-standard essential genes and non-essential genes with each construct was compared with receiver operating characteristics (ROC) curves. […] It should be noted that the AUROC values reported here are somewhat lower than what has been reported for CRISPRi screens in other cell lines like K562 and […] but in line with the previously conducted screen in HEK293T cells (FIG. 2D, E). The lower efficiency may be due to the lower expression level of TRIM28 in HEK293T cells (FIG. 3).
CRISPRi. Viral titer for each cell line was determined on 15-cm dishes with a range of virus volumes (0, 50, 100, 150, 200, 250 and 500 μl). Validated HEK293T cells with heterogeneous expression of each repressor-dCas9 derivative was transduced at a dose resulting in ˜30% […]. Selection was done with 1 μg/ml puromycin 24 hrs post transduction resulting in complete selection within 48-72 hrs (TO). At ˜30% infection efficiency, enough cells were transduced to achieve an initial representation of >500-fold for each dCas9 variant. […]

Assay [1] deals with 7×TetO array downstream of the polyadenylation site of a PGK1-EGFP-pA reporter in K562 cells. The assay can be described thus: PGK1-EGFP-pA reporter silencing by KRAB-dCas9 fusions tethered to a 7xTetO array in K562 cells. The settings on record: KRAB fused to N terminus of dCas9. An excerpt: (§1) The human genome encodes over 350 KRAB domain proteins. It was postulated that KRAB domains would differ in their ability to silence gene expression when fused to dCas9. 57 human KRAB domains were individually fused to the N terminus of dCas9 and assayed for activity when recruited to one of two different genomically integrated reporter constructs. In one, they were recruited to a SV40 promoter driving EGFP expression in HEK293T cells, and in the other tethered to a 7×TetO array downstream of the polyadenylation site of a PGK1-EGFP-pA reporter in K562 cells (FIG. 1a). KRAB domains had strikingly different effects, spanning from almost complete silencing to no change at all (FIG. 1b,c and FIG. 5). The differences were not explained by expression levels of the dCas9 fusion (FIG. 3). […] KRAB was also fused to the C-terminus of dCas9 with similar results (see Example 5 and FIG. 3).
(§2) Cell culture. All HEK293T cells, including the SV40-EGFP reporter cell line (gift from Lei Stanley Qi lab, Stanford University), were maintained in Dulbecco's Modified Eagle's Medium (DMEM) with 10% fetal bovine serum (FBS), and 1% penicillin-streptomycin. Since the SV40-EGFP reporter cell line was originally generated with a random integration of lentivirus, a clonal line was made to ensure homogeneously high expression levels of EGFP and its targeting gRNA. […]

The test system of assay [2] is SV40 promoter driving EGFP expression in HEK293T cells. The assay can be described thus: SV40-EGFP reporter silencing by KRAB-dCas9 fusions in HEK293T cells. The conditions noted are these: KRAB fused to N terminus of dCas9, flow cytometry 21 d after infection.
Text: as §1, §2
In general terms: In flow cytometry, cells or beads pass a laser one at a time.

For assay [3], the system named is SV40-EGFP reporter cell line. The assay is described as follows: ABA-induced recruitment of KRAB-PYL1 to ABI1-dCas9 at the SV40-EGFP reporter. The source says:
The difference in KRAB-domain activity might be explained either by their intrinsic potency or by their distinct temporal dynamics. […] The interaction between plant proteins […] and PYL1 is induced by abscisic acid (ABA) in a reversible manner (FIG. 1f). A clonal SV40-EGFP reporter cell line expressing ABI1—dCas9 and a gRNA targeting two sites on the SV40 promoter was generated. These cells were then infected with either ZIM3 or KOX1 KRAB domain fused to PYL1 and treated with ABA for 20 d (FIG. 1g, solid lines). […] When ABA was withdrawn after 9d, derepression occurred with similar dynamics with both KRAB domains (FIG. 1g, dashed lines). Thus, the difference in KRAB-domain potency is not due to slower dynamics of KOX1 KRAB induced repression. […] This is consistent with previous studies showing that KRAB domains can mediate silencing via both reversible and irreversible mechanisms.

On to “KOX1 KRAB: KRAB domain from KOX1 (ZNF10) fused to dCas9, used in current implementations of CRISPRi”, for which the “AUROC (gRNA-level)” value with HEK293T cells was 0.62. Further, the “AUROC (gene-level)” value in the assay on HEK293T cells was determined as 0.66. The entries for the “repression of EGFP reporter” value in assay [1], in assay [2] and in assay [2] (listed as KOX1) were “not a particularly strong repressor”, “not a particularly strong repressor” and “did not repress the reporter very robustly”, respectively.
Regarding “ZIM3 KRAB-PYL1: ZIM3 KRAB domain fused to PYL1 (SEQ ID NO: 16), recruited to ABI1-dCas9 by abscisic acid”, the “level of EGFP repression” value in assay [3] (100 μM ABA for 20 d, compared with KOX1 KRAB-PYL1) is “higher level of repression”. In addition, the “EGFP expression relative to the original levels” value in assay [3] (after 40-d silencing followed by ABA washout) stood at 10%.
